The target in assay [1] is T1, Histone deacetylase (Homo sapiens) (UniProt Q13547+O15379+Q9UBN7+Q92769+Q9UQL6+Q8WUI4+Q9BY41+Q96DB2+P56524+Q9UKV0+Q969S8). Put plainly: Inhibition of HDAC in human Cal27CisR cells assessed as combination index at 0.1 uM measured in presence of 10 uM cDDP by MTT-based Chou-Talalay method. In kind it is cell-based.
The target of assay [2] is T1, Histone deacetylase (Homo sapiens). Nature of the assay: Inhibition of HDAC in human CAL-27 cells assessed as combination index at 0.3 uM measured in presence of 5 uM cDDP by MTT-based Chou-Talalay method. The format is cell-based.
For assay [3], the system named is CAL-27. Put plainly: Induction of apoptosis in cisplatin resistant human CAL-27 cells assessed as caspase 7 activation at 0.3 uM pretreated for 24 hrs followed by cisplatin treatment and further incubated for 18 hrs by Caspase3/7 detection reagent based assay. The format is functional, cell-based. Conditions: time 42.0 hrs.
Assay [4] deals with T1, Histone deacetylase (Homo sapiens). Put plainly: Inhibition of HDAC in human CAL-27 cells assessed as combination index at 0.35 uM measured in presence of 10 uM cDDP by MTT-based Chou-Talalay method. The format is cell-based.
Assay [5] has the same target. Nature of the assay: Inhibition of HDAC in human CAL-27 cells assessed as combination index at 0.35 uM measured in presence of 2 uM cDDP by MTT-based Chou-Talalay method. In kind it is cell-based.
Assay [6] has the same target. Nature of the assay: Inhibition of HDAC in human Cal27CisR cells assessed as combination index at 0.2 uM measured in presence of 10 uM cDDP by MTT-based Chou-Talalay method. In kind it is cell-based.
For assay [7] the target is unchanged. Nature of the assay: Inhibition of HDAC in human Cal27CisR cells assessed as combination index at 0.5 uM measured in presence of 20 uM cDDP by MTT-based Chou-Talalay method. In kind it is cell-based.
Assay [8] can be described thus: Inhibition of Class 1/2b HDAC in human HL-60 cells by HDAC-Glo assay. In kind it is cell-based.
The target in assay [9] is T1, Histone deacetylase (Homo sapiens). Nature of the assay: Inhibition of HDAC in human Cal27CisR cells assessed as combination index at 0.3 uM measured in presence of 50 uM cDDP by MTT-based Chou-Talalay method. In kind it is cell-based.
The next assay deals with HL-60. Put plainly: Induction of apoptosis in human HL-60 cells assessed as caspase 3/7 activation at IC75 concentration incubated at 48 hrs. The format is functional.
In assay [10] the target is T1, Histone deacetylase (Homo sapiens). Nature of the assay: Inhibition of HDAC in human Cal27CisR cells assessed as combination index at 0.3 uM measured in presence of 20 uM cDDP by MTT-based Chou-Talalay method. In kind it is cell-based.
The target is the same in assay [11]. Nature of the assay: Inhibition of HDAC in human Cal27CisR cells assessed as potentiation of cisplatin-induced cytotoxicity by measuring fold reduction in cisplatin IC50 at 0.3 to 0.5 uM pretreated for 48 hrs followed by cisplatin addition and measured after 72 hrs by MTT assay relative to cisplatin alone. The format is cell-based. Conditions: dose 0.3-0.5 µM, time 120.0 hrs. (Tetrazolium dyes change colour on reduction, which living cells bring about.)

Assay [12] shares this target. Nature of the assay: Inhibition of HDAC in human Cal27CisR cells assessed as combination index at 2 uM measured in presence of 10 uM cDDP by MTT-based Chou-Talalay method. In kind it is cell-based.
Assay [13] shares this target. Put plainly: Inhibition of HDAC in human CAL-27 cells assessed as combination index at 0.75 uM measured in presence of 10 uM cDDP by MTT-based Chou-Talalay method. The format is cell-based.
The target is the same in assay [14]. Nature of the assay: Inhibition of HDAC in human Cal27CisR cells assessed as potentiation of cisplatin-induced cytotoxicity by measuring fold reduction in cisplatin IC50 at 2 to 3 uM pretreated for 48 hrs followed by cisplatin addition and measured after 72 hrs by MTT assay relative to cisplatin alone. In kind it is cell-based. Conditions: dose 2-3 µM, time 120.0 hrs.

The target is the same in assay [15]. Put plainly: Inhibition of HDAC in human Cal27CisR cells assessed as combination index at 3 uM measured in presence of 20 uM cDDP by MTT-based Chou-Talalay method. In kind it is cell-based.
Assay [16] has the same target. Put plainly: Inhibition of HDAC in human CAL-27 cells assessed as combination index at 0.5 uM measured in presence of 10 uM cDDP by MTT-based Chou-Talalay method. The format is cell-based.
Assay [17] relates to CAL-27. Nature of the assay: Induction of apoptosis in human CAL-27 cells assessed as caspase 7 activation at 2 uM in presence of pretreated for 24 hrs followed by cisplatin treatment and further incubated for 18 hrs by Caspase3/7 detection reagent based assay. Conditions: time 42.0 hrs. In kind it is functional, cell-based.
The target of assay [18] is T1, Histone deacetylase (Homo sapiens). Nature of the assay: Inhibition of HDAC in human CAL-27 cells assessed as potentiation of cisplatin-induced cytotoxicity by measuring fold reduction in cisplatin IC50 at 2 to 3 uM pretreated for 48 hrs followed by cisplatin addition and measured after 72 hrs by MTT assay relative to cisplatin alone. In kind it is cell-based. Conditions: dose 2-3 µM, time 120.0 hrs.

The target is the same in assay [19]. Put plainly: Inhibition of HDAC in human Cal27CisR cells assessed as combination index at 0.75 uM measured in presence of 50 uM cDDP by MTT-based Chou-Talalay method. In kind it is cell-based.
For assay [20] the target is unchanged. Put plainly: Inhibition of HDAC in human Cal27CisR cells assessed as combination index at 2 uM measured in presence of 50 uM cDDP by MTT-based Chou-Talalay method. In kind it is cell-based.
Assay [21] has the same target. Put plainly: Inhibition of HDAC in human CAL-27 cells assessed as combination index at 1.5 uM measured in presence of 10 uM cDDP by MTT-based Chou-Talalay method. The format is cell-based.
For assay [22] the target is unchanged. Nature of the assay: Inhibition of HDAC in human CAL-27 cells assessed as combination index at 1.25 uM measured in presence of 10 uM cDDP by MTT-based Chou-Talalay method. The format is cell-based.
For assay [23] the target is unchanged. Nature of the assay: Inhibition of HDAC in human Cal27CisR cells assessed as combination index at 2 uM measured in presence of 20 uM cDDP by MTT-based Chou-Talalay method. In kind it is cell-based.
For assay [24] the target is unchanged. Nature of the assay: Inhibition of HDAC in human CAL-27 cells assessed as combination index at 1 uM measured in presence of 10 uM cDDP by MTT-based Chou-Talalay method. In kind it is cell-based.
Assay [25] has the same target. Put plainly: Inhibition of HDAC in human Cal27CisR cells assessed as combination index at 1.5 uM measured in presence of 50 uM cDDP by MTT-based Chou-Talalay method. In kind it is cell-based.
Assay [26] has the same target. Put plainly: Inhibition of HDAC in human CAL-27 cells assessed as combination index at 1.5 uM measured in presence of 5 uM cDDP by MTT-based Chou-Talalay method. The format is cell-based.
Assay [27] deals with CAL-27. Put plainly: Induction of apoptosis in cisplatin resistant human CAL-27 cells assessed as caspase 3 activation at 2 uM pretreated for 24 hrs followed by cisplatin treatment and further incubated for 18 hrs by Caspase3/7 detection reagent based assay. The format is functional, cell-based. Conditions: time 42.0 hrs.
For assay [28], the target named is T1, Histone deacetylase (Homo sapiens). Put plainly: Inhibition of HDAC in human CAL-27 cells assessed as combination index at 0.25 uM measured in presence of 2 uM cDDP by MTT-based Chou-Talalay method. The format is cell-based.
Assay [29] shares this target. Nature of the assay: Inhibition of HDAC in human CAL-27 cells assessed as combination index at 0.1 uM measured in presence of 5 uM cDDP by MTT-based Chou-Talalay method. The format is cell-based.
For assay [30] the target is unchanged. Put plainly: Inhibition of HDAC in human CAL-27 cells assessed as combination index at 0.2 uM measured in presence of 2 uM cDDP by MTT-based Chou-Talalay method. In kind it is cell-based.

Activity calls are given as the source filed them. No cut-off for these calls is given here.

`O=C(CCCCCONC(=O)c1ccc2ccccc2n1)NO`: the CI in [1] turned out to be 2.62; in assay [2], 0.06; in [4] it was 0.02; in assay [5], 0.68; in assay [6], 0.27; in assay [7], 0.33. Also, the results for the CI in [9] and in [10] were 0.44 and 0.37, respectively. In the assay with CAL-27 [3], the result was Active. Besides, in assay [8], the 50% inhibitory concentration (IC50) turned out to be 73.2 nM. Moreover, in the assay on HL-60, the IC75 is 320 nM. For the same compound, in assay [11], the Ratio IC50 was 13.2.

In the case of `O=C(CCCCCONC(=O)c1nccc2ccccc12)NO`, the CI in [12] stood at 0.58; in assay [13], 0.51; in [15], 0.21; in assay [16], 0.58; in assay [19], 0.56; in assay [20], 0.42. Moreover, the CI stood at 0.21 in assay [21]; 0.3 in assay [22]; 0.35 in [23]; 0.34 in assay [24]; 0.38 in assay [25]; 0.37 in assay [26]. Further, the results for the Ratio IC50 in assay [14] and in assay [18] were 10 and 3.25, respectively. The outcome with CAL-27 [17] and in the assay on CAL-27 [27] was Active. In addition, in [8], the IC50 is 85.1 nM.

Regarding `O=C(CCCCCONC(=O)c1cc2ccccc2[nH]1)NO`, the CI was found to be 4.3 in [1]; 0.06 in assay [2]; 0.02 in assay [4]; 0.37 in assay [28]; 0.21 in assay [5]; 2.72 in [6]. For the same compound, the CI was 0.53 in assay [29]; 0.21 in [7]; 0.47 in assay [9]; 0.63 in [30]; 0.29 in [10]. In addition, the result in the assay on CAL-27 [3] was Active. Moreover, in assay [11], the Ratio IC50 worked out at 7.36.

Usually IC50 stands for the concentration needed to halve the response being measured. By IC75 is commonly meant the concentration at which the effect reaches the 75% level.

The record behind these values is ChEMBL document CHEMBL4823243, “Synergistic induction of apoptosis in resistant head and neck carcinoma and leukemia by alkoxyamide-based histone deacetylase inhibitors” (Eur J Med Chem, 2021).
